Where “and” joins values, the source holds several entries; their conditions need not be identical. Equal entries are not always repeated. Inconclusive results and toxic doses are left out. Rule as the data show it: active = T/C of 150% or more; inactive = T/C below 125%.
System: L1210 leukemia ip in BDF1 mice, survival T/C
Assay: NCI In Vivo Anticancer Drug Screen. Data for tumor model L1210 Leukemia (intraperitoneal) in B6D2F1 (BDF1) mice
Settings: endpoint: mean survival time, higher = longer survival
In short: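 Tumor cells were implanted, animals were treated, and survival was followed. The result divides the treated measurement by the vehicle-control measurement.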

[1] = dose: 100.0 mg/kg/injection, schedule: Q04DX002 (ip), vehicle: saline with Tween-80
[2] = dose: 200.0 mg/kg/injection, schedule: Q04DX002 (ip), vehicle: saline with Tween-80
[3] = dose: 400.0 mg/kg/injection, schedule: Q04DX002 (ip), vehicle: saline with Tween-80
[4] = dose: 50.0 mg/kg/injection, schedule: Q01DX009 (ip), vehicle: saline with Tween-80
[5] = dose: 100.0 mg/kg/injection, schedule: Q04DX003 (ip), vehicle: saline with Tween-80
[6] = dose: 200.0 mg/kg/injection, schedule: Q04DX003 (ip), vehicle: saline with Tween-80
[7] = dose: 100.0 mg/kg/injection, schedule: Q01DX001 (ip), vehicle: gum acacia
[8] = dose: 200.0 mg/kg/injection, schedule: Q01DX001 (ip), vehicle: gum acacia
[9] = dose: 400.0 mg/kg/injection, schedule: Q01DX001 (ip), vehicle: gum acacia

Measured: T/C

CCOC(=O)CCC(=O)C(=O)OCC
inactive: dose: 100.0 mg/kg/injection, schedule: Q01DX001 (ip), vehicle: saline 92 % of control | dose: 200.0 mg/kg/injection, schedule: Q01DX001 (ip), vehicle: saline 102 % of control | dose: 400.0 mg/kg/injection, schedule: Q01DX001 (ip), vehicle: saline 92 % of control

N#CSCc1ccccc1
inactive: dose: 75.0 mg/kg/injection, schedule: Q01DX001 (ip), vehicle: carboxymethylcellulose (CMC) 118 % of control | dose: 100.0 mg/kg/injection, schedule: Q04DX003 (ip), vehicle: Klucel (hydroxypropylcellulose) (HPC) 91 % of control | dose: 150.0 mg/kg/injection, schedule: Q01DX001 (ip), vehicle: carboxymethylcellulose (CMC) 98 % of control | dose: 200.0 mg/kg/injection, schedule: Q04DX003 (ip), vehicle: Klucel (hydroxypropylcellulose) (HPC) 103 % of control | dose: 400.0 mg/kg/injection, schedule: Q04DX003 (ip), vehicle: Klucel (hydroxypropylcellulose) (HPC) 94 % of control

CCCCCCCCCCCCNc1ccc(S(=O)(=O)c2ccc(N)cc2)cc1
inactive: [1] 100 % of control | [2] 97 % of control | [3] 103 % of control

C/C=C(\CC)C(=O)O.[Pb]
inactive: dose: 50.0 mg/kg/injection, schedule: Q04DX002 (ip), vehicle: saline with Tween-80 97 % of control | [1] 96 % of control and 119 % of control | [2] 100 % of control | [3] 92 % of control

COC(=O)c1n[nH]c(C(C)C)c1N=NN(C)C
inactive: [4] 116 % of control | [5] 116 % of control | dose: 132.0 mg/kg/injection, schedule: Q04DX003 (ip), vehicle: saline with Tween-80 111 % of control | [6] 119 % of control | dose: 300.0 mg/kg/injection, schedule: Q04DX003 (ip), vehicle: saline with Tween-80 111 % of control | dose: 400.0 mg/kg/injection, schedule: Q04DX003 (ip), vehicle: saline with Tween-80 96 % of control

CC(=O)Nc1ccc(/C=N\NC(=O)c2ccco2)cc1
inactive: dose: 100.0 mg/kg/injection, schedule: Q01DX001 (ip), vehicle: other 87 % of control | dose: 200.0 mg/kg/injection, schedule: Q01DX001 (ip), vehicle: other 90 % of control | dose: 400.0 mg/kg/injection, schedule: Q01DX001 (ip), vehicle: other 87 % of control

CC(C)(C)c1cc(/C=N/NC(=O)CNC(=O)Nc2cccc(C(F)(F)F)c2)cc(C(C)(C)C)c1O
inactive: [7] 92 % of control and 94 % of control | dose: 100.0 mg/kg/injection, schedule: Q04DX002 (ip), vehicle: gum acacia 98 % of control and 90 % of control | dose: 100.0 mg/kg/injection, schedule: Q04DX003 (ip), vehicle: gum acacia 99 % of control and 87 % of control | [8] 94 % of control and 90 % of control | dose: 200.0 mg/kg/injection, schedule: Q04DX002 (ip), vehicle: gum acacia 93 % of control | dose: 200.0 mg/kg/injection, schedule: Q04DX003 (ip), vehicle: gum acacia 92 % of control and 96 % of control | [9] 94 % of control and 102 % of control | dose: 400.0 mg/kg/injection, schedule: Q04DX002 (ip), vehicle: gum acacia 93 % of control and 87 % of control | dose: 400.0 mg/kg/injection, schedule: Q04DX003 (ip), vehicle: gum acacia 92 % of control and 89 % of control

Cc1ccc2c(c1)N(CCCN1CC[N+](C)(C)CC1)c1ccccc1S2
inactive: dose: 10.0 mg/kg/injection, schedule: Q01DX001 (ip), vehicle: saline 101 % of control | dose: 20.0 mg/kg/injection, schedule: Q01DX001 (ip), vehicle: saline 95 % of control | dose: 40.0 mg/kg/injection, schedule: Q01DX001 (ip), vehicle: saline 98 % of control | dose: 80.0 mg/kg/injection, schedule: Q01DX001 (ip), vehicle: saline 98 % of control

O=c1[nH]nnc2nn(C3OC(CO)C(O)C3O)cc12 (configuration not stated)
inactive: dose: 100.0 mg/kg/injection, schedule: Q01DX005 (ip), vehicle: saline 103 % of control | dose: 200.0 mg/kg/injection, schedule: Q01DX005 (ip), vehicle: saline 109 % of control

CCCCOC(=O)Nc1cc(Cl)ccc1C
inactive: [7] 95 % of control | [8] 96 % of control | [9] 98 % of control

O=[N+]([O-])c1ccc(C[N+]23CCN(CC2)CC3)cc1
inactive: [4] 96 % of control | dose: 50.0 mg/kg/injection, schedule: Q04DX003 (ip), vehicle: saline with Tween-80 106 % of control | dose: 100.0 mg/kg/injection, schedule: Q01DX009 (ip), vehicle: saline with Tween-80 102 % of control | [5] 106 % of control | [6] 101 % of control

From PubChem BioAssay AID248 (DTP/NCI, 2004)
